Key:
[1] = tested on: IMR-90; assay: Cytotoxicity against human IMR90 cells after 96 hrs by CellTiter-Glo assay; type: cell-based; settings: IMR-90, 96 h
[2] = tested on: PC-3; assay: Cytotoxicity against human PC3 cells after 96 hrs by CellTiter-Glo assay; type: functional, cell-based; settings: PC-3, 96 h
[3] = Cytotoxicity against human H522-T1 cells after 96 hrs by CellTiter-Glo assay; type: functional, cell-based; settings: H522-T1, 96 h
[4] = Cytotoxicity against human H460 cells after 96 hrs by CellTiter-Glo assay; type: functional, cell-based; settings: NCI-H460, 96 h
[5] = tested on: A2058; assay: Cytotoxicity against human A2058 cells after 96 hrs by CellTiter-Glo assay; type: functional, cell-based; settings: A2058, 96 h

N#CC(=O)C#N [CARBONYL CYANIDE]
IC50 [1]: 5000 nM

CC1(C)CCC[C@@]2(C)C1CC[C@@]1(C)C3=CC(=O)C(=O)c4[nH]cc(c43)C[C@@]12O (some centres undefined) [MYCOLEPTODISCIN B]
IC50 [2]: 600 nM
IC50 [1]: 410 nM
IC50 [3]: 630 nM
IC50 [4]: 660 nM
IC50 [5]: 780 nM

CC[C@]1(O)C[C@@H]2CN(CCc3c([nH]c4ccccc34)[C@@](C(=O)OC)(c3cc4c(cc3OC)N(C)[C@H]3[C@@](O)(C(=O)OC)[C@H](OC(C)=O)[C@]5(CC)C=CCN6CC[C@]43[C@@H]65)C2)C1 [VINBLASTINE]
IC50 [2]: 5 nM
IC50 [3]: 9 nM
IC50 [4]: 2 nM
